A short description of this data set: Saturated solubility in ethanol solvent (excess loaded, stirred 24 hours, 0.45-um filtrate measured with LCMS). The note with it: for saturated solubility used in calculation of the degree of supersaturation: 90% by mass of EtOH, 10° C.; for saturated dissolution concentration: 90% ethanol solvent at 10° C., according to FIG. 1. Type of data set: physicochemical. Here is the method:
The saturated solubility is herein measured according to the following method. That is, 100 ml of a solvent having a predetermined ethanol concentration (w/w) is placed in a container (having a volume of 100 ml or 200 ml, suitably 200 ml), the liquid temperature is set to 10° C. by a water bath in advance, and then the solvent is stirred at 200 rpm, and a target substance is loaded in an excessive amount (amount until suspension is made). After 24 hours, a filtrate is obtained by a 0.45-um membrane filter, and the amount of the target substance (RebA or RebD) included in the filtrate is measured with LCMS. LCMS here used is suitably LCMS 8050 manufactured by Shimadzu Corporation.
Specifically, 100 ml of a solvent having a predetermined ethanol concentration (w/w) was placed in a […] glass container (separable round-bottomed flask, Tokyo Rikakikai Co., Ltd.), set to a predetermined temperature by a water bath (PCC-7000, Tokyo Rikakikai Co., Ltd.) in advance, and then stirred (SPZ-100, Tokyo Rikakikai Co., Ltd.) at 200 rpm, and RebA (J-100, Morita Kagaku Kogyo Co., Ltd.) or RebD (Jining Renewal & Joint International, China) was loaded in an excessive amount (amount until suspension was achieved). After 24 hours, a filtrate was obtained by a 0.45-um membrane filter, the amount of RebA or RebD included in the filtrate was measured with LCMS (LCMS 8050 manufactured by Shimadzu Corporation), and the solubility curve was created. The results are illustrated in FIG. 1.

With `C=C1C[C@@]23CC[C@H]4[C@@](C)(CCC[C@@]4(C)C(=O)O[C@@H]4O[C@H](CO)[C@@H](O)[C@H](O)[C@H]4O)[C@@H]2CC[C@]1(O[C@@H]1O[C@H](CO)[C@@H](O)[C@H](O[C@@H]2O[C@H](CO)[C@@H](O)[C@H](O)[C@H]2O)[C@H]1O[C@@H]1O[C@H](CO)[C@@H](O)[C@H](O)[C@H]1O)C3` [RebA, rebaudioside A], the “saturated solubility used in calculation of the degree of supersaturation” value is 8270.5 ppm and the saturated dissolution concentration was 8,250 ppm.

Consider `C=C1C[C@@]23CC[C@H]4[C@@](C)(CCC[C@@]4(C)C(=O)O[C@@H]4O[C@H](CO)[C@@H](O)[C@H](O)[C@H]4O[C@@H]4O[C@H](CO)[C@@H](O)[C@H](O)[C@H]4O)[C@@H]2CC[C@]1(O[C@@H]1O[C@H](CO)[C@@H](O)[C@H](O[C@@H]2O[C@H](CO)[C@@H](O)[C@H](O)[C@H]2O)[C@H]1O[C@@H]1O[C@H](CO)[C@@H](O)[C@H](O)[C@H]1O)C3` [RebD, rebaudioside D], for which the “saturated solubility used in calculation of the degree of supersaturation” value is given as 99.33 ppm and the saturated dissolution concentration was 99.3 ppm.

These data come from patent US20220363705A1, “METHOD FOR MANUFACTURING REVAUDIOSIDE-D-CONTAINING CRYSTALLIZED PRODUCT, AND REVAUDIOSIDE-D-CONTAINING CRYSTALLIZED PRODUCT” (SUNTORY HOLDINGS LIMITED, priority 2019, published 2022).
